Assay [1] has as its system RAW264.7 cells. Format: cell-based.
Assay [2] has as its target T1, anthrax lethal factor (LF) (Bacillus anthracis, UniProt P15917). The experiment in a line: biochemical. Format: biochemical.
Assay [3] addresses T1, anthrax lethal factor (LF). The experiment in a line: biochemical. Format: biochemical. The source holds these as a separate data set.
For assay [4], the system named is RAW264.7 cells. Format: cell-based. The source holds these as a separate data set.
The target in assay [5] is LF cleavage of endogenous MKK3 and MKK4 in RAW264.7 cell lysate (Bacillus anthracis, UniProt P15917). Format: biochemical.
For assay [6], the target named is T1, anthrax lethal factor (LF). In kind it is biochemical.
[7] abbreviates: read-out: IC50 (µM), MKK6 cleavage.

The source of these data is article PMC3408624 (Chemistry & biology, 2012).

Entries after “also recorded” stand apart in the source; their conditions may differ. Read-outs that look alike come from different tables or passages of the source. A value given as a limit tells only on which side of the number the result lay.

T1 sequence (P15917 34-809 limits assumed): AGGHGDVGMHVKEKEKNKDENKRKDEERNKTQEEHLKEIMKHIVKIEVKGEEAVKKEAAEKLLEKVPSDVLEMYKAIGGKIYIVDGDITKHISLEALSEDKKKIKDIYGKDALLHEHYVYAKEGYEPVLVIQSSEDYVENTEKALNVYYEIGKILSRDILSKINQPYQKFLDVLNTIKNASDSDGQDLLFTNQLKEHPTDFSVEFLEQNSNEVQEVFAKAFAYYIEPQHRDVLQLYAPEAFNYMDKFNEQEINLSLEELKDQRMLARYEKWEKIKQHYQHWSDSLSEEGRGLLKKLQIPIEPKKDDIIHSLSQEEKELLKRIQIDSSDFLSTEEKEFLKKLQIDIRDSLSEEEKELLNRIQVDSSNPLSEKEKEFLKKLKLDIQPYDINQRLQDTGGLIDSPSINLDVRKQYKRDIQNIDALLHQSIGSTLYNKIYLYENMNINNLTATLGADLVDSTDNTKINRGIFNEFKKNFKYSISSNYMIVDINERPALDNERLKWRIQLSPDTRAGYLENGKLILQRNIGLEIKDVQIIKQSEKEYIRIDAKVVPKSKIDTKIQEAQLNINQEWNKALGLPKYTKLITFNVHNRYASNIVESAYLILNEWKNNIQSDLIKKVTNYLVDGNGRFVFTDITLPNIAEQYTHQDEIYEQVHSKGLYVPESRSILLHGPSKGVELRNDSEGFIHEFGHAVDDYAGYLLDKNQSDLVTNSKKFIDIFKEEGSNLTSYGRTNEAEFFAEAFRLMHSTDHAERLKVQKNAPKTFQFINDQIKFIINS
Chain of LF cleavage of endogenous MKK3 and MKK4 in RAW264.7 cell lysate (P15917 34-809 limits assumed): as above

With `Cc1cc(O)c(C=O)c2c1C(=O)Oc1c(CO)c(O)c3c(c1O2)C(O)OC3=O` (centres unmarked) [Compound 2, Salazinic acid], the “MKK3 cleavage in intact LeTx-treated cells” value with RAW264.7 cells [1] was “decreased MKK3 cleavage”. Moreover, in assay [2], the “Inhibition of MKK6 cleavage by LF (structure-activity profile, in words)” value is on record as “active as inhibitors” and the “Mode of inhibition of LF cleavage of MKK6” value is “competitive inhibition; also recorded: increased KM with no effect on Vmax”. In assay [2] (setting [7]), the IC50 is 42 ± 5 µM. The “Inhibition of LF cleavage of a peptide substrate (in words)” value (“Inhibition of LF cleavage … (in words)” below) in assay [3] is reported as “weak inhibitors”. The “Protection against LeTx-induced cell death (MTT viability)” value (“Protection” below) with RAW264.7 cells [4] was “partial protection”. In assay [5], the “Inhibition of MKK3 cleavage by LF in cell lysate” value (“Inhibition of MKK3 cleavage by LF” below) is recorded as “inhibited cleavage” and the “Inhibition of MKK4 cleavage by LF in cell lysate” value (shortened to “Inhibition of MKK4 cleavage by LF”) was “inhibited cleavage”.

Turning to `COc1cc(C)c2c(c1C=O)Oc1c(c(C)c(O)c3c1C(O)OC3=O)OC2=O` (centres unmarked) [Compound 1, Stictic acid], the “MKK3 cleavage in intact LeTx-treated cells” value in the assay with RAW264.7 cells [1] is “decreased MKK3 cleavage”. The molecule also yielded an IC50 in assay [2] of 24 ± 3 µM. In assay [3], the “Inhibition of LF cleavage … (in words)” value is listed as “weak inhibitors”. In addition, the “Protection” value in the assay with RAW264.7 cells [4] is “partial protection”. Moreover, in assay [5], the “Inhibition of MKK3 cleavage by LF” value is listed as “inhibited cleavage” and the “Inhibition of MKK4 cleavage by LF” value is “inhibited cleavage”.

On to `COc1cc(C(=O)O)c2c(c1C)OC(=O)c1c(C)cc(O)c(C=O)c1O2` [Compound 3, Parellic acid], for which, in the assay with RAW264.7 cells [1], the “MKK3 cleavage in intact LeTx-treated cells” value is given as “decreased MKK3 cleavage”. Further, the “Inhibition of MKK6 cleavage by LF (structure-activity profile, in words)” value in assay [2] is “active as inhibitors”. Besides, the IC50 in assay [2] (setting [7]) turned out to be 125 ± 20 µM. Further, the “Inhibition of LF cleavage … (in words)” value in assay [3] is “weak inhibitors”. Also, the “Protection” value in the assay with RAW264.7 cells [4] was “partial protection”. For the same molecule, in assay [5], the “Inhibition of MKK3 cleavage by LF” value was “inhibited cleavage” and the “Inhibition of MKK4 cleavage by LF” value is given as “inhibited cleavage”.

For the molecule `CCCCCC(=O)Cc1cc(O)cc2c1C(=O)Oc1cc(O)c(C(=O)O)c(CCCCC)c1O2` [Compound 5, Physodic acid], in assay [2], the IC50 was above 250 µM and the “Inhibition of MKK6 cleavage by LF (structure-activity profile, in words)” value is “failed to inhibit LF”.

In the case of `COc1ccccc1C=O` [o-anisaldehyde, reference compound], the “Inhibition of MKK6 cleavage by LF (in words)” value in assay [2] is “no detectable inhibition”.

On to `COC(=O)c1c(OC)cc2c(c1C)Oc1c(Cl)c(O)c(Cl)c(C)c1C(=O)O2` [Compound 4, Gangaleoidin], for which, in assay [2], the IC50 was above 250 µM and the “Inhibition of MKK6 cleavage by LF (structure-activity profile, in words)” value is “failed to inhibit LF”.

Turning to `Cc1cc(OC(=O)c2c(C)cc(O)cc2O)cc(O)c1C(=O)O` [Compound 6, Lecanoric acid], in assay [2], the “IC50 (µM), MKK6 cleavage” value was “No inhibition” and the “Inhibition of MKK6 cleavage by LF (structure-activity profile, in words)” value is “lack of inhibition”. In addition, the “Protection” value in the assay on RAW264.7 cells [4] is listed as “failed to inhibit cell death”.

Turning to `CNC(=O)[C@H](Cc1c[nH]c2ccccc12)NC(=O)[C@@H](CC(=O)NO)CC(C)C` [GM6001, reference compound], the “Result in primary FP screen for inhibition of LF cleavage of labeled MKK6” value in assay [6] is given as “scored as a hit”. The IC50 in assay [3] is 9 µM.

Consider Reduced stictic acid [Compound 8], for which the IC50 in assay [2] (setting [7]) was above 250 µM.

For `COC(=O)c1c(C)cc(OC(=O)c2c(C)cc(O)c(C=O)c2O)c(C)c1O` [Compound 7, Atranorin], in assay [2], the “IC50 (µM), MKK6 cleavage” value was “No inhibition” and the “Inhibition of MKK6 cleavage by LF (structure-activity profile, in words)” value was “lack of inhibition”. Besides, the “Protection” value in the assay with RAW264.7 cells [4] is “failed to inhibit cell death”.

One may read the IC50 as the concentration that gives 50% inhibition.
